Experimental data reported in US5556744A, “Methods and compositions for diagnosing and treating certain HIV infected patients” (The Trustees of the University of Pennsylvania, priority 1994, dated 1996).

Experiments:
[1] = system: maternal HIV+ sera (antibodies); test: RIA / ELISA binding of maternal HIV+ sera to gp120 and gp41 peptides (Example 3); design: species or system human; settings: for Number of maternal sera binding to peptide: 20 maternal sera; for Binding of maternal sera to peptide (in words): Example 3; for Number of binding maternal sera from the non-transmission group: non-transmission group (13 sera); for Number of binding maternal sera from the transmission group: vertical transmission group (7 sera)
How it was run: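 Maternal sera, diluted 1:50 and 1:500, were bound overnight at 4°C to peptides immobilized at 10 μg/ml (pH 9.6 carbonate) and blocked with 1% BSA. Read-out was ¹²⁵I-labelled anti-human IgG counts or HRP-TMB OD450. Signal with peptide minus without was expressed relative to seronegative serum.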

[2] = system: maternal serum samples (antibodies); test: ELISA peptide-binding of maternal sera, expanded peptide collection (Example 5); design: species or system human
How it was run: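 Maternal sera diluted 1:50 or 1:500 in 1% BSA/PBS/0.05% Tween 20 were tested by ELISA on 10 μg/mL HIV IIIB gp120/gp41 peptides (~18 residues, ≥85% pure). Binding scored positive at experimental/control OD450nm ratio ≥2; HIV-seronegative human sera served as controls.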

[3] = Serum No. 1, Non-Transmission Group
[4] = Serum No. 2, Non-Transmission Group
[5] = Serum No. 3, Non-Transmission Group
[6] = Serum No. 4, Transmission Group
[7] = Serum No. 5, Transmission Group
[8] = Serum No. 6, Non-Transmission Group
[9] = Serum No. 7, Non-Transmission Group
[10] = Serum No. 8, Non-Transmission Group
[11] = Serum No. 9, Non-Transmission Group
[12] = Serum No. 10, Transmission Group
[13] = Serum No. 11, Non-Transmission Group
[14] = Serum No. 12, Non-Transmission Group
[15] = Serum No. 13, Transmission Group
[16] = Serum No. 14, Transmission Group
[17] = Serum No. 15, Transmission Group
[18] = Serum No. 16, Non-Transmission Group
[19] = Serum No. 17, Non-Transmission Group
[20] = Serum No. 18, Non-Transmission Group
[21] = Serum No. 19, Transmission Group
[22] = Serum No. 20, Non-Transmission Group

Sequence	Number of maternal sera binding to peptide [1]	Binding of maternal sera to peptide (in words) [1]	Binding of maternal HIV+ serum to peptide (sera/NHS ratio) [1, 3]	Binding of maternal HIV+ serum to peptide (sera/NHS ratio) [1, 4]	Binding of maternal HIV+ serum to peptide (sera/NHS ratio) [1, 5]	Binding of maternal HIV+ serum to peptide (sera/NHS ratio) [1, 6]	Binding of maternal HIV+ serum to peptide (sera/NHS ratio) [1, 7]	Binding of maternal HIV+ serum to peptide (sera/NHS ratio) [1, 8]	Binding of maternal HIV+ serum to peptide (sera/NHS ratio) [1, 9]	Binding of maternal HIV+ serum to peptide (sera/NHS ratio) [1, 10]	Binding of maternal HIV+ serum to peptide (sera/NHS ratio) [1, 11]	Binding of maternal HIV+ serum to peptide (sera/NHS ratio) [1, 12]	Binding of maternal HIV+ serum to peptide (sera/NHS ratio) [1, 13]	Binding of maternal HIV+ serum to peptide (sera/NHS ratio) [1, 14]	Binding of maternal HIV+ serum to peptide (sera/NHS ratio) [1, 15]	Binding of maternal HIV+ serum to peptide (sera/NHS ratio) [1, 16]	Binding of maternal HIV+ serum to peptide (sera/NHS ratio) [1, 17]	Binding of maternal HIV+ serum to peptide (sera/NHS ratio) [1, 18]	Binding of maternal HIV+ serum to peptide (sera/NHS ratio) [1, 19]	Binding of maternal HIV+ serum to peptide (sera/NHS ratio) [1, 20]	also measured
CFRPGGGDMRDNWREL [Peptide 466]	three	very strong binding	- (specific OD450 or cpm of sera sample binding to peptide divided by the specific OD450 or cpm of NHS sample binding to peptide, which value is less than 2)	- (specific OD450 or cpm of sera sample binding to peptide divided by the specific OD450 or cpm of NHS sample binding to peptide, which value is less than 2)	- (specific OD450 or cpm of sera sample binding to peptide divided by the specific OD450 or cpm of NHS sample binding to peptide, which value is less than 2)	- (specific OD450 or cpm of sera sample binding to peptide divided by the specific OD450 or cpm of NHS sample binding to peptide, which value is less than 2)	- (specific OD450 or cpm of sera sample binding to peptide divided by the specific OD450 or cpm of NHS sample binding to peptide, which value is less than 2)	+ (which value is between 2 to 3)	- (specific OD450 or cpm of sera sample binding to peptide divided by the specific OD450 or cpm of NHS sample binding to peptide, which value is less than 2)	- (specific OD450 or cpm of sera sample binding to peptide divided by the specific OD450 or cpm of NHS sample binding to peptide, which value is less than 2)	++ (which value is greater than 3)	- (specific OD450 or cpm of sera sample binding to peptide divided by the specific OD450 or cpm of NHS sample binding to peptide, which value is less than 2)	- (specific OD450 or cpm of sera sample binding to peptide divided by the specific OD450 or cpm of NHS sample binding to peptide, which value is less than 2)	- (specific OD450 or cpm of sera sample binding to peptide divided by the specific OD450 or cpm of NHS sample binding to peptide, which value is less than 2)	- (specific OD450 or cpm of sera sample binding to peptide divided by the specific OD450 or cpm of NHS sample binding to peptide, which value is less than 2)	- (specific OD450 or cpm of sera sample binding to peptide divided by the specific OD450 or cpm of NHS sample binding to peptide, which value is less than 2)	- (specific OD450 or cpm of sera sample binding to peptide divided by the specific OD450 or cpm of NHS sample binding to peptide, which value is less than 2)	- (specific OD450 or cpm of sera sample binding to peptide divided by the specific OD450 or cpm of NHS sample binding to peptide, which value is less than 2)	- (specific OD450 or cpm of sera sample binding to peptide divided by the specific OD450 or cpm of NHS sample binding to peptide, which value is less than 2)	+ (which value is between 2 to 3)	Binding of maternal HIV+ serum to peptide (sera/NHS ratio) [1, 21]: - (specific OD450 or cpm of sera sample binding to peptide divided by the specific OD450 or cpm of NHS sample binding to peptide, which value is less than 2); Binding of maternal HIV+ serum to peptide (sera/NHS ratio) [1, 22]: - (specific OD450 or cpm of sera sample binding to peptide divided by the specific OD450 or cpm of NHS sample binding to peptide, which value is less than 2); Percent of the maternal serum samples that bound to the peptide ([1]; all 20 samples): 15%; Number of binding maternal sera from the non-transmission group [1]: three; Number of binding maternal sera from the transmission group [1]: Zero; Number of non-transmission sera that reacted with the peptide ([2]; of 13 non-transmission sera): 3
TLPCASDAKAYDTEV [Peptide 93]	six	Several maternal serum samples had reactivity	++ (which value is greater than 3)	- (specific OD450 or cpm of sera sample binding to peptide divided by the specific OD450 or cpm of NHS sample binding to peptide, which value is less than 2)	- (specific OD450 or cpm of sera sample binding to peptide divided by the specific OD450 or cpm of NHS sample binding to peptide, which value is less than 2)	++ (which value is greater than 3)	- (specific OD450 or cpm of sera sample binding to peptide divided by the specific OD450 or cpm of NHS sample binding to peptide, which value is less than 2)	+ (which value is between 2 to 3)	++ (which value is greater than 3)	+ (which value is between 2 to 3)	- (specific OD450 or cpm of sera sample binding to peptide divided by the specific OD450 or cpm of NHS sample binding to peptide, which value is less than 2)	- (specific OD450 or cpm of sera sample binding to peptide divided by the specific OD450 or cpm of NHS sample binding to peptide, which value is less than 2)	- (specific OD450 or cpm of sera sample binding to peptide divided by the specific OD450 or cpm of NHS sample binding to peptide, which value is less than 2)	- (specific OD450 or cpm of sera sample binding to peptide divided by the specific OD450 or cpm of NHS sample binding to peptide, which value is less than 2)	- (specific OD450 or cpm of sera sample binding to peptide divided by the specific OD450 or cpm of NHS sample binding to peptide, which value is less than 2)	- (specific OD450 or cpm of sera sample binding to peptide divided by the specific OD450 or cpm of NHS sample binding to peptide, which value is less than 2)	- (specific OD450 or cpm of sera sample binding to peptide divided by the specific OD450 or cpm of NHS sample binding to peptide, which value is less than 2)	+ (which value is between 2 to 3)	- (specific OD450 or cpm of sera sample binding to peptide divided by the specific OD450 or cpm of NHS sample binding to peptide, which value is less than 2)	- (specific OD450 or cpm of sera sample binding to peptide divided by the specific OD450 or cpm of NHS sample binding to peptide, which value is less than 2)	Binding of maternal HIV+ serum to peptide (sera/NHS ratio) [1, 21]: - (specific OD450 or cpm of sera sample binding to peptide divided by the specific OD450 or cpm of NHS sample binding to peptide, which value is less than 2); Binding of maternal HIV+ serum to peptide (sera/NHS ratio) [1, 22]: - (specific OD450 or cpm of sera sample binding to peptide divided by the specific OD450 or cpm of NHS sample binding to peptide, which value is less than 2); Number of binding maternal sera from the non-transmission group [1]: 5; Percent of binding maternal sera from the non-transmission group ([1]; of the sera which bound): 83%; Percent of binding maternal sera from the transmission group ([1]; of the sera which bound): 17%; Number of binding maternal sera from the transmission group [1]: 1; Binding / reactivity of maternal sera to peptide (in words) ([2]; Example 5): Differences in binding between the transmission and non-transmission groups are noted
